Reference: patent US20250326748A1, “COMPOUNDS AND METHODS FOR MODULATING SPLICING” (REMIX THERAPEUTICS INC., priority 2022, published 2025)
Where a name gives a salt, the structure may show the parent alone. Read-outs that look alike come from different tables or passages of the source.

What was measured:
HTT mRNA = test: Splicing RT-qPCR assay, HTT canonical (CJ) and alternative (AJ) junction mRNA; assay type: cell-based, human; conditions: Homo sapiens; for IC50: canonical junction mRNA; for AC50: alternative junction mRNA, read-out: HTT AJ (AC50, increase in AJ mRNA)
Outline: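 One-step RT-qPCR on cell lysates quantified CJ and AJ isoforms, normalized to PPIA for A673 or GAPDH/GUSB for K562. Cells were exposed for 24 h at 37° C to 11 concentrations in 3-fold steps up to 10 uM, with DMSO ≤0.25%. A673 were grown in DMEM and K562 in IMDM, both with 10% FBS.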

HiBiT-tagged MYB protein = test: HiBiT protein abundance assay, MYB (K562 HiBiT knock-in); assay type: cell-based, human; conditions: HiBiT knock-in cells, 24 hours
Outline: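 Endogenously HiBiT-tagged K562 knock-in lines treated 24 h at 37 °C with 10-point 3-fold dilutions (top 10 μM final, DMSO ≤0.25%) in IMDM+1% FBS. Lytic Nano-Glo luminescence normalized to DMSO and unmodified K562 controls; four-parameter fit gives 50%-abundance concentration (IC50).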

K562 cells = test: Cell viability, Cell Titer Glo 2.0 assay, K562; conditions: 72 hours
[1] = 24 h, RT-qPCR, A673 or K562 cells, 24 hours treatment, read-out: HTT CJ (IC50, decrease in CJ mRNA)
[2] = qPCR panel, read-out: HTT CJ (decrease in CJ mRNA levels, IC50)
[3] = RT-qPCR, A673 or K562 cells, 24 hours treatment

Row | IC50 (HTT mRNA; [1]) [µM] | IC50 (HTT mRNA; [2]) [µM] | IC50 (HiBiT-tagged MYB protein) [µM] | Compound | AC50 (HTT mRNA; [3]) [µM] | Effect on Cell Viability, K562 (K562 cells)
1 | 0.1 to 1 | 0.1 to 1 | < 0.1 | CCNC1CCN(c2cnc3nc(-c4cc5cn(C)nc5c(F)c4O)ccc3c2)C1 (stereo not drawn) [Compound 106, 5-{6-[3-(ethylamino)pyrrolidin-1-yl]-1,8-naphthyridin-2-yl}-7-fluoro-2-methylindazol-6-ol] | 0.1 to 1 | A (<100 nM)
2 | < 0.1 | < 0.1 | < 0.1 | CN[C@@H]1CCN(c2cnc3nc(-c4cc5cn(C)nc5c(C)c4O)ncc3c2)C1 [Compound 107, 2,7-dimethyl-5-{6-[(3R)-3-(methylamino)pyrrolidin-1-yl]pyrido[2,3-d]pyrimidin-2-yl}indazol-6-ol hydrochloride] | < 0.1 | A (<100 nM)
3 | 0.1 to 1 | 0.1 to 1 | < 0.1 | CNC1CCN(c2cnc3nc(-c4cc5cn(C)nc5c(C)c4O)ncc3c2)C1 (stereo not drawn) [Compound 104, 2,7-dimethyl-5-{6-[3-(methylamino)pyrrolidin-1-yl]pyrido[2,3-d]pyrimidin-2-yl}indazol-6-ol] | 0.1 to 1 | A (<100 nM)
